Earlier results, collected in patent publication US20100119592A1, “CYTARABINE FOR TREATMENT OF GLIOMA” (priority 2006, published 2010).

Test system: proliferating mammalian cells in culture
Details: wide variety of proliferating mammalian cells in culture

## Nc1ccn([C@@H]2O[C@H](CO)[C@@H](O)[C@@H]2O)c(=O)n1 [Cytarabine, 4-amino-1-beta-D-arabinofuranosyl-2(1H)-pyrimidinone]
  cytotoxicity: cytotoxic
